Measurements published in PMC2095803 (Nucleic Acids Research, 2007).

Legend:
Bst DNA polymerase [1] = biological target: T1, Bst DNA polymerase (Geobacillus stearothermophilus, UniProt P52026); assay: Oligonucleotide template assay; type: biochemical, Bacillus stearothermophilus; conditions: Bst; final concentration of 200 nM
T1 sequence (P52026 289-876 limits assumed): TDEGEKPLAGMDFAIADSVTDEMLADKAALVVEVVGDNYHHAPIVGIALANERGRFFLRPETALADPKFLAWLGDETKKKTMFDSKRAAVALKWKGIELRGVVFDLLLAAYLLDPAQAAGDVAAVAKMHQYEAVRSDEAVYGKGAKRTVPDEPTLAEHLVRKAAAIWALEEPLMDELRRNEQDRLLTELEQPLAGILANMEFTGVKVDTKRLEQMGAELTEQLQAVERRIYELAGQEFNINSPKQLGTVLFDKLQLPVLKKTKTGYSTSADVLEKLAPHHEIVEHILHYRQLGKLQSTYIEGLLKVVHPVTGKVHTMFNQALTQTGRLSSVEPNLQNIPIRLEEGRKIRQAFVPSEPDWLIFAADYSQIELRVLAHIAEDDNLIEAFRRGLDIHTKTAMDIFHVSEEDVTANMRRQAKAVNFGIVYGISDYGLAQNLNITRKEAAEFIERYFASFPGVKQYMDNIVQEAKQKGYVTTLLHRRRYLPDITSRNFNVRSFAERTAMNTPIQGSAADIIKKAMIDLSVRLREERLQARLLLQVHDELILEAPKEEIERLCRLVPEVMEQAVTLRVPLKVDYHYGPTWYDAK

[2] = biological target: Klenow(exo−) DNA polymerase (Escherichia coli, UniProt P00582, D355A/E357A); assay: PEP termination assay; type: biochemical
Taq DNA polymerase = Taq DNA polymerase (Thermus aquaticus, UniProt P19821); assay: PEP termination assay; type: biochemical, Thermus aquaticus YT-1
[3] = biological target: T2, Therminator II DNA polymerase (Thermococcus sp., UniProt Q56366, A485L/D141A/E143A/Y409V); assay: PEP termination assay; type: biochemical, Thermococcus species 9ºN-7
T2 sequence (Q56366 1-775 D141A/E143A/Y409V/A485L): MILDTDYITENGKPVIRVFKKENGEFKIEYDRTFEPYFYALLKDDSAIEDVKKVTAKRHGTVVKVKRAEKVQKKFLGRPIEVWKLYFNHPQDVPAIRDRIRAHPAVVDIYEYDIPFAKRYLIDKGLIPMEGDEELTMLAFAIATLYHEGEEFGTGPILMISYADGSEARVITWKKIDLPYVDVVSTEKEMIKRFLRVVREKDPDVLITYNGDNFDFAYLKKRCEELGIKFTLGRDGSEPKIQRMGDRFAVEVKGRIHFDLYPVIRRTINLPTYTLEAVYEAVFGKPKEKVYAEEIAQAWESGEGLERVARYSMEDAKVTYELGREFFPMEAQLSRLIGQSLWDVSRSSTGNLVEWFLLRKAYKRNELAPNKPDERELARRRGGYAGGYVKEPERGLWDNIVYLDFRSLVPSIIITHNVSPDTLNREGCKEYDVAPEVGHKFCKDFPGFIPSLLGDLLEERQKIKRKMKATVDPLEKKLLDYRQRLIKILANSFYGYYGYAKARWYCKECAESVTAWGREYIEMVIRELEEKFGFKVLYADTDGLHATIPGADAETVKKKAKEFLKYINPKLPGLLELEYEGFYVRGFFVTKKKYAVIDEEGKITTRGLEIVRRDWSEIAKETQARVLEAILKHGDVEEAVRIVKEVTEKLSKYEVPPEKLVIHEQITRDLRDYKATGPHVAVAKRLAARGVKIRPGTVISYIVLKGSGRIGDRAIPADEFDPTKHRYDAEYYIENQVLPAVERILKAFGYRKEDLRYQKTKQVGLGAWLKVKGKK

[4] = biological target: T3, Vent(exo−) DNA polymerase (Thermococcus litoralis, UniProt P30317, D141A/E143A); assay: PEP termination assay; type: biochemical
T3 sequence (P30317 with tags, fused parts or gaps D141A/E143A): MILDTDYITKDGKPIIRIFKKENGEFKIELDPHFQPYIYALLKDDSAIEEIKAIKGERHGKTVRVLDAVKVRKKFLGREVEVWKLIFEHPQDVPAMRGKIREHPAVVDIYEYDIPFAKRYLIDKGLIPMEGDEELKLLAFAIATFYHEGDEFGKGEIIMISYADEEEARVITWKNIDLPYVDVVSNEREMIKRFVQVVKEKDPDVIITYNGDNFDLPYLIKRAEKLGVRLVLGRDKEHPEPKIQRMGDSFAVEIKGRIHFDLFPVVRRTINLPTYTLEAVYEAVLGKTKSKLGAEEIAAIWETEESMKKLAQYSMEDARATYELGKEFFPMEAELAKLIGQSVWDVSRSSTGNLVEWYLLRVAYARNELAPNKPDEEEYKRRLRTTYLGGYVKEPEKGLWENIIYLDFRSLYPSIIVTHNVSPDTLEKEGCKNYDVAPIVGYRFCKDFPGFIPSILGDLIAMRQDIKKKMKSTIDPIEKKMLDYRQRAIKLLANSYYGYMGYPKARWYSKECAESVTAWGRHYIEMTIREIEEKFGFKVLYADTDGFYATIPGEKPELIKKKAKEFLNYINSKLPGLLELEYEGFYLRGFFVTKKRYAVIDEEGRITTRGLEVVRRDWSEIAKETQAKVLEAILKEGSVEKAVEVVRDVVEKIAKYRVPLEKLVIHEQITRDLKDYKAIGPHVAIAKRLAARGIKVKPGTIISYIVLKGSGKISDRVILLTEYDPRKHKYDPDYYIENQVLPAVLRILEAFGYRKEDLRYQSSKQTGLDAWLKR

Bst DNA polymerase [5] = biological target: T1, Bst DNA polymerase; assay: PEP termination assay; type: biochemical, Bacillus stearothermophilus
AmpliTaqFS = conditions: F667Y mutation in AmpliTaqFS; cited from earlier work
[6] = Klenow(exo−), 25× IC50, oligoTemplate-3

Sequence of Taq DNA polymerase (P19821 whole entry): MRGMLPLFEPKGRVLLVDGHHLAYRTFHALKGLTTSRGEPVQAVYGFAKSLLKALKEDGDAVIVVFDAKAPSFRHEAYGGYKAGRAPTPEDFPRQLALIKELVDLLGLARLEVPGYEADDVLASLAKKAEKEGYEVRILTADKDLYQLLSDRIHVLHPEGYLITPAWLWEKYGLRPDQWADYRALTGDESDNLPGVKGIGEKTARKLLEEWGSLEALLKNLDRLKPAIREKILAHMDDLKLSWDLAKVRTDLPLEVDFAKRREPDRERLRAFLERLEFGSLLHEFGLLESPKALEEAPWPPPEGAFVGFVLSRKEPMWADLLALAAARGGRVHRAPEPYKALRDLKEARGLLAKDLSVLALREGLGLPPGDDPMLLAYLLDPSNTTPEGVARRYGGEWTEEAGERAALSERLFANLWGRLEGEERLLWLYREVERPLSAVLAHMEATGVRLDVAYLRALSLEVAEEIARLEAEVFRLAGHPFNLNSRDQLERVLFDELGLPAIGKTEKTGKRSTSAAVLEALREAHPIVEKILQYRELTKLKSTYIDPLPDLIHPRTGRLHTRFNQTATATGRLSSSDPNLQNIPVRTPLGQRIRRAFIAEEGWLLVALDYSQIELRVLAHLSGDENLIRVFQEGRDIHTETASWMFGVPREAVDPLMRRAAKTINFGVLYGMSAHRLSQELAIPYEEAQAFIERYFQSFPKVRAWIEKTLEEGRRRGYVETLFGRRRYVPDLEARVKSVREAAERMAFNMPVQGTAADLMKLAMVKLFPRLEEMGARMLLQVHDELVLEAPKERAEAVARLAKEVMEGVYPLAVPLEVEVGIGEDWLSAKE

## O=[N+]([O-])c1ccccc1CNc1ncnc2c1ncn2[C@H]1C[C@H](O)[C@@H](COP(=O)(O)OP(=O)(O)OP(=O)(O)O)O1 [Compound IIIc, N^6-(2-Nitrobenzyl)-2’-deoxyadenosine-5’-triphosphate]
Bst DNA polymerase [1]
  Incorporation / termination of DNA synthesis: efficient, base-specific termination of DNA synthesis
[2]
  IC50: 4.3 nM
[2]; [6]
  % 1st Base: 76.1 ± 1.8%
  % 2nd Base: 6.2 ± 0.5%
  % Primer: 17.7 ± 2.2%
Taq DNA polymerase
  IC50: 300 nM
Taq DNA polymerase; Taq, 25× IC50, oligoTemplate-3
  % 1st Base: 98.7 ± 0.4%
  % 2nd Base: <0.1%
  % Primer: 1.3 ± 0.4%
[3]
  IC50: 30 nM
[4]
  IC50: 2.1 nM
Bst DNA polymerase [5]
  IC50: 10 nM
Bst DNA polymerase [5]; Bst, 25× IC50, oligoTemplate-3
  % 1st Base: 99.1 ± 0.3%
  % 2nd Base: <0.1%
  % Primer: 0.9 ± 0.3%
Bst DNA polymerase [5]; Bst, at 25× its IC50 value
  Extension / termination of DNA synthesis on 10-thymidine template: efficiently incorporated and terminated Bst DNA synthesis at the first-base position

## Nc1ncnc2c1ncn2[C@H]1CC[C@@H](COP(=O)(O)OP(=O)(O)OP(=O)(O)O)O1 [ddATP, 2′,3′-dideoxyadenosine triphosphate, reference compound]
AmpliTaqFS
  Ratio ddATP over dATP: 0.59
